This note sets out measurements from patent US7252953B2, “Method of detecting and preventing Alzheimer's disease, particularly at prodromal and early stages” (United States of America Department of Veterans Affairs, priority 2002, dated 2007).

“Also recorded” adds a separate entry of the source.

In test [1] the test system is p38 MAPK. The test is described as follows: p38 MAPK phosphorylation in microglial cells (WB). The class given is cell-based, murine. The method, then: (§1) Primary microglial cultures were prepared from neonatal mouse (C57BL6) brains as previously described (Reference 29) and maintained in Delbecco's modified Eagle's medium with F-12 nutrient mixture (DMEM/F12) containing 10% fetal bovine sera (FBS) and antibiotics. N9 clonal murine microglial cell cultures were maintained in Iscoves modified Delbecco's medium (IMDM) containing 5% heat-inactivated FBS, 2 mM L-glutamine, 50 μM 2-mercaptoethanol and antibiotics. Treatment of both primary and N9 microglial cells were performed under serum-free conditions. Freshly solublized Aβ (BioSource, Camarillo, Calif.) peptides were prepared and characterized as previously described (References 30 and 44) and were used in all in vitro experiments. Unless specified, cells were always pretreated with sAβ for 5 min and then followed by challenge with α-thrombin (100 nM or as indicated), glutamate (2 mM) or LPS (5 ng/ml).
(§2) Cultured cells were lysed in pre-chilled 2×IP buffer I (Tris, 20 mM, pH 7.4; NaCl, 300 mM; EDTA, 2 mM; 2 mM EGTA, pH 8.0; 0.4 mM sodium ortho-vanadate, 2% Triton X-100; 1% NP-40; 0.4 mM PMSF) supplemented both with phosphatase and protease inhibitor cocktails. After centrifugation, the supernatants were collected and total protein concentrations were determined by the bicinchoninic acid assay (BCA). Equal amounts (250 μg) of cell lysates from each group were mixed with 20 μl (˜5 μg) of either PAR1 or PAR4 antibodies, and brought to a total volume of 1 ml in 1×IP buffer. Following a 1 hour incubation at 4° C., appropriate secondary antibody-agarose conjugates were added followed by incubation (30 min with agitation), centrifugation and sufficient washes. The pellets were resuspended in 30 μl of electrophoresis sample buffer and boiled for 5 min. The supernatants were directly used for polyacrylamide sodium dodecyl sulfate gel electrophoresis (SDS-PAGE) and WB analysis. To prepare subcellular fractions of brain samples, we homogenized fresh or fresh-frozen tissues in Tris buffered saline solution (Tris, 10 mM, pH 7.4; NaCl, 150 mM; EDTA, 1 mM; 1 mM EGTA, pH 8.0; 0.2 mM sodium ortho-vanadate) supplemented with protease inhibitor cocktails. After centrifugation (12,000 g at 4° C. for 15 min), the supernatants were collected as cytosolic fractions. The pellets were resuspended in 1×IP buffer containing protease inhibitor cocktail. Following brief sonication and centrifugation (12,000 g at 4° C. for 15 min), the supernatants were collected as membrane fractions. Both antibodies to GRK2 and GRK5 (Santa Cruz) were diluted 1:500 for WB, other routine procedures, WB for total and phospho-p44/42 MAPK, and semi-quantitative analysis of protein band density were performed as previously described (Reference 29).
(§3) In previous studies, we found thrombin signaling via PARs in microglial cells involving [Ca^2+]i increase and transient activation of both p38 and p44/42 mitogen-activated protein kinases (MAPKs) (Reference 29). To understand potential consequences of GRK dysfunction induced by sAβ, for these studies we also assessed changes in thrombin signaling in sAβ-pretreated microglial cells.
(§4) FIG. 5A, N9 microglial cells were pre-treated with 500 nM sAβ1-42 (arrow “1”) followed by 100 nM thrombin treatment (arrow “2”). Changes in [Ca^2+]i were measured as previously described (Reference 29) from three separate experiments. […] For both FIGS. 5B and 5C, lane M=Marker, 1=Control (0 min), 2=Control (25 min), 3=Aβ1-42 (25 min), 4=Thrombin (20 min), 5=Aβ1-42+thrombin (20 min post-Aβ), 6=Control (24 h), 7=Aβ1-42 (24 h), 8=Thrombin (24 h) and 9=Aβ1-42+thrombin (24 h post-Aβ). “P” and “T” indicate phosphorylated and total p38 or p44/42 MAPKs, respectively.

Test [2] concerns [Ca^2+]i. The test is described as follows: Ca2+ imaging (Fluo-4) in microglial cells. It counts as cell-based, murine. The following applies: sAβ-pretreated cells (500 nM sAβ1-42), then 100 nM thrombin. The method, then: as §1
We measured [Ca^2+]i in microglial cells using Fluo-4 (2 μM) with the aid of a Nikon BioRadiance triple laser scanning confocal microscope. Image collection, quantification and data analysis were performed as previously described (Reference 29).
as §3, §4

Test [3] deals with p44/42 MAPK. The test is described as follows: p44/42 MAPK phosphorylation in microglial cells (WB). It counts as cell-based, murine. The method, then: as §1, §2, §3, §4
For test [4], the system named is PARs-GRKs binding. The test is described as follows: Inhibition of GRK-PAR binding by sAβ-pretreatment in microglial cells (IP and WB, all examined PARs and GRKs). The class given is cell-based, murine. Conditions: sAβ1-42 500 nM pretreatment 5 min, then 100 nM thrombin 30 seconds. Here is the method:
as §1, with “Unless specified, cells were always pretreated with sAβ for 5 min and then followed by challenge with α-thrombin (100 nM or as indicated), glutamate (2 mM) or LPS (5 ng/ml).” left out
Cultured cells were lysed in pre-chilled 2×IP buffer I (Tris, 20 mM, pH 7.4; NaCl, 300 mM; EDTA, 2 mM; 2 mM EGTA, pH 8.0; 0.4 mM sodium ortho-vanadate, 2% Triton X-100; 1% NP-40; 0.4 mM PMSF) supplemented both with phosphatase and protease inhibitor cocktails. After centrifugation, the supernatants were collected and total protein concentrations were determined by the bicinchoninic acid assay (BCA). […] Both antibodies to GRK2 and GRK5 (Santa Cruz) were diluted 1:500 for WB, other routine procedures, WB for total and phospho-p44/42 MAPK, and semi-quantitative analysis of protein band density were performed as previously described (Reference 29). […]

Test [5] has as its system TNF-α. Nature of the test: TNF-α release in N9 clonal murine microglial cells. It counts as cell-based. Here is the method:
as §1
(§5) TNF-α production in microglial culture media was measured and standardized as previously described (Reference 29).
(§6) Given our results that sAβ disrupts GRK function and inhibits GPCR desensitization in microglia, we next investigated whether such signaling dysregulation might lead to cellular functional changes in microglia. Both primary and N9 clonal murine microglial cultures were used and TNF-α secretion in culture media was measured as an outcome. […] Moreover, the potentiation effect of sAβ on thrombin and glutamate-induced microglial activation was dose-dependent, with a minimal effective concentration (ECmin) of 20 nM and a maximal EC (ECmax) of 500 nM. Furthermore, the enhancement effect was not observed if sAβ was given after (10 min) thrombin or glutamate treatments. […] Together with the evidence that sAβ inhibits GRK-GPCR interactions and causes prolongation of GPCR signaling, we conclude that sAβ, by disrupting GRK function, alters microglial reactivity to specific GPCR activators.
FIG. 6A, pretreatment with sAβ1-42 potentiated (p<0.01) TNF-α release induced by increasing doses of thrombin (Thr) as indicated from primary mouse brain microglial cultures. n=4. […] The ECmin and ECmax for sAβ's potentiation are approximately 20 nM and 500 nM, respectively. n=6.

Test [6] relates to TNF-α. The test is described as follows: TNF-α release in primary mouse brain microglial cultures. The class given is cell-based. The method, then: as §1, §5, §6
FIG. 6A, pretreatment with sAβ1-42 potentiated (p<0.01) TNF-α release induced by increasing doses of thrombin (Thr) as indicated from primary mouse brain microglial cultures. n=4. […]

Test [7] concerns fibrillar actin (F-actin). The test is described as follows: Phalloidin staining of F-actin in microglial cells. The class given is cell-based, murine. Here is the method: Microglial cells were seeded onto poly-L-lysine-coated 8-chamber slides at a density of 1×10^4/well. After various treatments, cells were immediately fixed with pre-chilled (4° C.) 5% acetic acid in methanol for 45 min at 4° C., followed by washing with PBS. The fixed cells were blocked and double-stained with phalloidin-FITC (1:1,000) and anti-GRK5 (1:500) or GRK2 (1:500). Secondary antibody-Cy3 conjugates (1:500) staining, washing, mounting and confocal microscopic visualization were performed routinely as previously described (Reference 29).
Microglial-mediated inflammation is an important pathological component of AD (Reference 28). […] Thrombin, a serine protease is known to activate protease-activated GPCRs, (PARs) such as PAR1 (Reference 29) and PAR4 in microglia. The sAβ preparation used in this study has been previously characterized as composed principally of conformational intermediates by CD-spectrum (Reference 30) and a mixture of monomeric and oligomeric Aβ by Western blotting.

Setting [8] is: sAβ pretreatment (5 min) followed by thrombin, within 20 min post-Aβ treatment.
Where [9] appears, read: sAβ-pretreatment followed by thrombin, 24 h.
[10] abbreviates: substance alone, within 20 min post-Aβ treatment.
[11] abbreviates: 5 min pretreatment, N9 cells, FIG. 6B.

For “sAβ: Soluble β-amyloid, chain length not stated at the place; sAβ1-42 (500 nM) in Examples 3-6”, the “p38 MAPK phosphorylation” value is given as “increased phosphorylation” in test [1] (setting [8]); “remained elevated; also recorded: persistent phosphorylation” in test [1] (setting [9]); “returned to basal levels” in test [1] (substance alone, 24 h); “increased phosphorylation” in test [1] (setting [10]). Moreover, the “[Ca^2+]i reached by the subsequent slow climb, without decrease” value in test [2] was “greater than 450 nM”. For the same substance, the “p44/42 MAPK phosphorylation” value in test [3] (setting [8]) is listed as “increased phosphorylation”; in test [3] (setting [9]) it was “remained elevated; also recorded: persistent phosphorylation”; in test [3] (substance alone, 24 h), “returned to basal levels”; in test [3] (setting [10]), “increased phosphorylation”. Moreover, the “binding of all examined PARs to GRKs after thrombin in sAβ-pretreated cells” value in test [4] is recorded as “essentially abolished; also recorded: almost completely abolished”. Also, the “effect of sAβ pretreatment on LPS-induced TNF-α release” value in test [5] (setting [11]) is recorded as “not”. The “effect of sAβ pretreatment on glutamate-induced TNF-α release” value in test [5] (setting [11]) was “significantly potentiated”. The “effect of sAβ pretreatment on thrombin-induced TNF-α release” value is “significantly potentiated” in test [5] (setting [11]) and “significantly potentiated” in test [6] (5 min pretreatment, FIG. 6A). The “TNF-α release induced by sAβ alone” value in test [5] (nM concentrations, N9 clonal microglial cultures) is recorded as “insufficient to induce significant TNF-α release; also recorded: not significant”; in test [6] (nM concentrations), “insufficient to induce significant TNF-α release”. Also, in test [5] (potentiation of thrombin- and glutamate-induced TNF-α release), the “maximal EC (ECmax) of sAβ's potentiation” value was determined as 500 nM. Also, the “enhancement of TNF-α release when sAβ is given after thrombin or glutamate (post-treatment)” value in test [5] (sAβ given 10 min after thrombin or glutamate) is on record as “not observed”. Further, the “formation of fibrillar actin (F-actin)” value in test [7] is recorded as “caused rapid formation of fibrillar actin (F-actin)”.
